# From patent US20120058989A1, “ANTIBACTERIAL FLUOROQUINOLONE ANALOGS” (Achaogen, Inc., priority 2008, published 2012)
# Like-named read-outs stand apart in the source and are kept apart here.
# Legend:
# Assay in all cases: MIC, CLSI broth microdilution
# Assay type in all cases: cell-based
# [1] = system: S. aureus ASAU001 (Fluoroquinolone-susceptible, ATCC29213); conditions: for MIC: Staphylococcus aureus
# Method in brief: (§1)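 Broth microdilution per CLSI M7-A7, with serial two-fold compound dilutions in Mueller Hinton Broth mixed 1:1 with inoculum. Colonies from a previous-day agar plate were suspended in saline to a final 5×10^5 CFU/mL. Plates were incubated 20 hours at 35° C. in ambient air.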
# [2] = system: S. pneumoniae ASPN001 (Fluoroquinolone-susceptible, ATCC49619); conditions: for MIC: Streptococcus pneumoniae
# Method in brief: as §1
# [3] = system: S. pneumoniae ASPN1027 (Fluoroquinolone-resistant); conditions: for MIC: Streptococcus pneumoniae
# Method in brief: as §1
# [4] = system: S. pneumoniae ASPN002 (Fluoroquinolone-susceptible, ATCC10813); conditions: Table 3
# Method in brief: as §1
# [5] = system: E. coli AECO066 (Fluoroquinolone-resistant); conditions: for MIC: Escherichia coli
# Method in brief: as §1
# [6] = system: P. aeruginosa APAE001 (Fluoroquinolone-susceptible, ATCC27853); conditions: for MIC: Pseudomonas aeruginosa
# Method in brief: as §1
# [7] = system: A. baumannii AABA1065 (Fluoroquinolone-susceptible); conditions: for MIC: Acinetobacter baumannii
# Method in brief: as §1
# [8] = system: A. baumannii AABA1009 (Fluoroquinolone-resistant); conditions: for MIC AABA 1009: Table 2
# Method in brief: as §1
# [9] = system: E. coli AECO086 (Fluoroquinolone-resistant); conditions: Table 3
# Method in brief: as §1
# [10] = system: S. aureus ASAU1031 (Fluoroquinolone-resistant); conditions: for MIC: Staphylococcus aureus
# Method in brief: as §1
# [11] = system: P. aeruginosa APAE002 (Fluoroquinolone susceptible); conditions: Table 3
# Method in brief: as §1
# [12] = system: E. coli AECO001 (Fluoroquinolone susceptible, ATCC25922); conditions: for MIC: Escherichia coli
# Method in brief: as §1
# [13] = system: P. aeruginosa APAE054 (Fluoroquinolone-resistant); conditions: for MIC: Pseudomonas aeruginosa
# Method in brief: as §1
# [14] = system: S. aureus ASAU002 (Fluoroquinolone-susceptible, ATCC33591 (MRSA)); conditions: Table 3
# Method in brief: as §1
# [15] = system: A. baumannii AABA1020 (Fluoroquinolone-resistant); conditions: Table 3
# Method in brief: as §1
# [16] = system: E. coli AECO002 (Fluoroquinolone susceptible); conditions: Table 3
# Method in brief: as §1
# [17] = system: S. aureus ASAU1033 (Fluoroquinolone-resistant); conditions: Table 3
# Method in brief: as §1
# [18] = system: S. pneumoniae ASPN1018 (Fluoroquinolone-resistant); conditions: Table 3
# Method in brief: as §1
compound,measurement,setting,value
N[C@H]1C[C@H]2CCCc3c(c(F)cc4c(=O)c(C(=O)O)cn(C5CC5)c34)N2C1 [3/15],MIC,"[1]; Table 2, read-out: MIC ASAU 001",≤ 1 µg/mL
same,MIC,[1]; Table 3,< 1 µg/mL
same,MIC,"[2]; Table 2, read-out: MIC ASPN 001",≤ 1 µg/mL
same,MIC,[2]; Table 3,< 1 µg/mL
same,MIC,"[3]; Table 2, read-out: MIC ASPN 1027",1 to 8 µg/mL
same,MIC,[3]; Table 3,2 to 8 µg/mL
same,MIC,[4]; Streptococcus pneumoniae,< 1 µg/mL
same,MIC,"[5]; Table 2, read-out: MIC AECO 066",1 to 8 µg/mL
same,MIC,[5]; Table 3,2 to 8 µg/mL
same,MIC,"[6]; Table 2, read-out: MIC APAE 001",1 to 8 µg/mL
same,MIC,[6]; Table 3,< 1 µg/mL
same,MIC,"[7]; Table 2, read-out: MIC AABA 1065",≤ 1 µg/mL
same,MIC,[7]; Table 3,< 1 µg/mL
same,MIC,"[8]; Acinetobacter baumannii, Table 2, read-out: MIC AABA 1009",> 8 µg/mL
same,MIC,[9]; Escherichia coli,2 to 8 µg/mL
same,MIC,"[10]; Table 2, read-out: MIC ASAU 1031",1 to 8 µg/mL
same,MIC,[10]; Table 3,2 to 8 µg/mL
same,MIC,[11]; Pseudomonas aeruginosa,< 1 µg/mL
same,MIC,"[12]; Table 2, 35° C., 20 hours, read-out: MIC AECO 001",≤ 1 µg/mL
same,MIC,[12]; Table 3,< 1 µg/mL
same,MIC,"[13]; Table 2, read-out: MIC APAE 054",> 8 µg/mL
same,MIC,[13]; Table 3,> 8 µg/mL
same,MIC,[14]; Staphylococcus aureus,< 1 µg/mL
same,MIC,[15]; Acinetobacter baumannii,> 8 µg/mL
same,MIC,[16]; Escherichia coli,< 1 µg/mL
same,MIC,[17]; Staphylococcus aureus,> 8 µg/mL
same,MIC,[18]; Streptococcus pneumoniae,1 to 2 µg/mL
"N[C@H]1C[C@H]2CC=Cc3c(c(F)cc4c(=O)c(C(=O)O)cn(C5CC5)c34)N2C1.O=C(O)C(F)(F)F [7B/18, (7aR,9S)-9-Amino-4-cyclopropyl-12-fluoro-1-oxo-4,7,7a,8,9,10-hexahydro-1H-pyrrolo[1′,2′:1,7]azepino[2,3h]-quinoline-2-carboxylic acid trifluoroacetate]",MIC ASAU 001,[1]; Table 2,A (MIC's of 1.0 μg/mL or less = A)
same,MIC ASAU 001,[1]; Table 3,A (MIC's of less than 1.0 = A)
same,MIC ASPN 001,[2]; Table 2,A (MIC's of 1.0 μg/mL or less = A)
same,MIC ASPN 001,[2]; Table 3,A (MIC's of less than 1.0 = A)
same,MIC ASPN 1027,[3]; Table 2,B (MIC's of greater than 1.0 μg/mL to 8.0 μg/mL = B)
same,MIC ASPN 1027,[3]; Table 3,C (MIC's of 2.0 μg/mL to 8.0 μg/mL = C)
same,MIC ASPN002,[4],A (MIC's of less than 1.0 = A)
same,MIC AECO 066,[5]; Table 2,B (MIC's of greater than 1.0 μg/mL to 8.0 μg/mL = B)
same,MIC AECO 066,[5]; Table 3,C (MIC's of 2.0 μg/mL to 8.0 μg/mL = C)
same,MIC APAE 001,[6]; Table 2,A (MIC's of 1.0 μg/mL or less = A)
same,MIC APAE 001,[6]; Table 3,A (MIC's of less than 1.0 = A)
same,MIC AABA 1065,[7]; Table 2,A (MIC's of 1.0 μg/mL or less = A)
same,MIC AABA 1065,[7]; Table 3,A (MIC's of less than 1.0 = A)
same,MIC AABA 1009,[8],C (MIC's of greater than 8.0 μg/mL = C)
same,MIC AECO086,[9],C (MIC's of 2.0 μg/mL to 8.0 μg/mL = C)
same,MIC ASAU 1031,[10]; Table 2,B (MIC's of greater than 1.0 μg/mL to 8.0 μg/mL = B)
same,MIC ASAU 1031,[10]; Table 3,C (MIC's of 2.0 μg/mL to 8.0 μg/mL = C)
same,MIC APAE002,[11],A (MIC's of less than 1.0 = A)
same,MIC AECO 001,"[12]; Table 2, 35° C., 20 hours",A (MIC's of 1.0 μg/mL or less = A)
same,MIC AECO 001,[12]; Table 3,A (MIC's of less than 1.0 = A)
same,MIC APAE 054,[13]; Table 2,C (MIC's of greater than 8.0 μg/mL = C)
same,MIC APAE 054,[13]; Table 3,D (MIC's of greater than 8.0 μg/mL = D)
same,MIC ASAU002,[14],A (MIC's of less than 1.0 = A)
same,MIC AABA1020,[15],C (MIC's of 2.0 μg/mL to 8.0 μg/mL = C)
same,MIC AECO002,[16],A (MIC's of less than 1.0 = A)
same,MIC ASAU1033,[17],D (MIC's of greater than 8.0 μg/mL = D)
same,MIC ASPN1018,[18],B (MIC's of 1.0 μg/mL to 2.0 μg/mL = B)
"CON=C1Cc2c(c(F)cc3c(=O)c(C(=O)O)cn(C4CC4)c23)N2CCCC2C1 (centres unmarked) [27/11, 4-Cyclopropyl-12-fluoro-6-(methoxyimino)-1-oxo-4,5,6,7,7a,8,9,10-octahydro-1H-pyrrolo[1′,2′:1,7]azepino[2,3-h]quinoline-2-carboxylic acid]",MIC ASAU 001,[1]; Table 2,A (MIC's of 1.0 μg/mL or less = A)
same,MIC ASPN 001,[2]; Table 2,B (MIC's of greater than 1.0 μg/mL to 8.0 μg/mL = B)
same,MIC ASPN 1027,[3]; Table 2,C (MIC's of greater than 8.0 μg/mL = C)
same,MIC AECO 066,[5]; Table 2,C (MIC's of greater than 8.0 μg/mL = C)
same,MIC APAE 001,[6]; Table 2,C (MIC's of greater than 8.0 μg/mL = C)
same,MIC AABA 1065,[7]; Table 2,B (MIC's of greater than 1.0 μg/mL to 8.0 μg/mL = B)
same,MIC AABA 1009,[8],C (MIC's of greater than 8.0 μg/mL = C)
same,MIC ASAU 1031,[10]; Table 2,C (MIC's of greater than 8.0 μg/mL = C)
same,MIC AECO 001,"[12]; Table 2, 35° C., 20 hours",B (MIC's of greater than 1.0 μg/mL to 8.0 μg/mL = B)
same,MIC APAE 054,[13]; Table 2,C (MIC's of greater than 8.0 μg/mL = C)
"O=C(O)c1cn(C2CC2)c2c3c(c(F)cc2c1=O)N1CCCC1CC(=NO)C3 (centres unmarked) [27/12, 4-Cyclopropyl-12-fluoro-6-(hydroxyimino)-1-oxo-4,5,6,7,7a,8,9,10-octahydro-1H-pyrrolo[1′,2′:1,7]azepino[2,3-h]quinoline-2-carboxylic acid]",MIC ASAU 001,[1]; Table 2,A (MIC's of 1.0 μg/mL or less = A)
same,MIC ASPN 001,[2]; Table 2,B (MIC's of greater than 1.0 μg/mL to 8.0 μg/mL = B)
same,MIC ASPN 1027,[3]; Table 2,C (MIC's of greater than 8.0 μg/mL = C)
same,MIC AECO 066,[5]; Table 2,C (MIC's of greater than 8.0 μg/mL = C)
same,MIC APAE 001,[6]; Table 2,C (MIC's of greater than 8.0 μg/mL = C)
same,MIC AABA 1065,[7]; Table 2,B (MIC's of greater than 1.0 μg/mL to 8.0 μg/mL = B)
same,MIC AABA 1009,[8],C (MIC's of greater than 8.0 μg/mL = C)
same,MIC ASAU 1031,[10]; Table 2,B (MIC's of greater than 1.0 μg/mL to 8.0 μg/mL = B)
same,MIC AECO 001,"[12]; Table 2, 35° C., 20 hours",B (MIC's of greater than 1.0 μg/mL to 8.0 μg/mL = B)
same,MIC APAE 054,[13]; Table 2,C (MIC's of greater than 8.0 μg/mL = C)
